Experimental data: patent US20130303509A1, “NAMPT INHIBITORS” (AbbVie Inc., priority 2012, published 2013)

What follows are molecules tested on PC3 cells (assay: NAMPT Cell Proliferation Assay). Conditions: Homo sapiens, PC-3, 120 h, 5 days incubation, cell viability by Cell Titer Glo.
Type: cell-based
How it was run: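 Five-day CellTiter-Glo viability readout in PC3 cells grown in RPMI/10% heat-inactivated FBS. Compounds added after overnight attachment as a 10-fold dilution series, […]. Percent inhibition fitted to sigmoidal dose-response to derive IC50.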

IC50 [nM] | Compound
8.26 | O=C(Nc1ccc(C2CCN(C(=O)CC[N+](=O)[O-])CC2)cc1)C1CN(c2cccnn2)C1 [Example 336, N-{4-[1-(3-nitropropanoyl)piperidin-4-yl]phenyl}-1-(pyridazin-3-yl)azetidine-3-carboxamide]
6.94 | CSCCC(=O)N1CCC(c2ccc(NC(=O)C3CN(c4cccnn4)C3)cc2)CC1 [Example 337, N-(4-{1-[3-(methylsulfanyl)propanoyl]piperidin-4-yl}phenyl)-1-(pyridazin-3-yl)azetidine-3-carboxamide]
1.11 | C#CCCC(=O)N1CCC(c2ccc(NC(=O)C3CN(c4cccnn4)C3)cc2)CC1 [Example 338, N-{4-[1-(pent-4-ynoyl)piperidin-4-yl]phenyl}-1-(pyridazin-3-yl)azetidine-3-carboxamide]
1.83 | O=C(Nc1ccc(C2CCN(C(=O)C3CCCCC3)CC2)cc1)C1CN(c2cccnn2)C1 [Example 339, N-{4-[1-(cyclohexylcarbonyl)piperidin-4-yl]phenyl}-1-(pyridazin-3-yl)azetidine-3-carboxamide]
2.42 | O=C(Nc1ccc(C2CCN(C(=O)CC3CCCCC3)CC2)cc1)C1CN(c2cccnn2)C1 [Example 340, N-{4-[1-(cyclohexylacetyl)piperidin-4-yl]phenyl}-1-(pyridazin-3-yl)azetidine-3-carboxamide]
1.98 | Cc1cccc(C(=O)N2CCC(c3ccc(NC(=O)C4CN(c5cccnn5)C4)cc3)CC2)c1 [Example 341, N-{4-[1-(3-methylbenzoyl)piperidin-4-yl]phenyl}-1-(pyridazin-3-yl)azetidine-3-carboxamide]
2.3 | O=C(Nc1ccc(C2CCN(C(=O)c3ccccc3O)CC2)cc1)C1CN(c2cccnn2)C1 [Example 342, N-{4-[1-(2-hydroxybenzoyl)piperidin-4-yl]phenyl}-1-(pyridazin-3-yl)azetidine-3-carboxamide]
6.53 | O=C(Nc1ccc(C2CCN(C(=O)c3cccc(O)c3)CC2)cc1)C1CN(c2cccnn2)C1 [Example 343, N-{4-[1-(3-hydroxybenzoyl)piperidin-4-yl]phenyl}-1-(pyridazin-3-yl)azetidine-3-carboxamide]
8.9 | O=C(Nc1ccc(C2CCN(C(=O)c3ccc(O)cc3)CC2)cc1)C1CN(c2cccnn2)C1 [Example 344, N-{4-[1-(4-hydroxybenzoyl)piperidin-4-yl]phenyl}-1-(pyridazin-3-yl)azetidine-3-carboxamide]
1.99 | COc1ccccc1C(=O)N1CCC(c2ccc(NC(=O)C3CN(c4cccnn4)C3)cc2)CC1 [Example 345, N-{4-[1-(2-methoxybenzoyl)piperidin-4-yl]phenyl}-1-(pyridazin-3-yl)azetidine-3-carboxamide]
3.8 | COc1cccc(C(=O)N2CCC(c3ccc(NC(=O)C4CN(c5cccnn5)C4)cc3)CC2)c1 [Example 346, N-{4-[1-(3-methoxybenzoyl)piperidin-4-yl]phenyl}-1-(pyridazin-3-yl)azetidine-3-carboxamide]
8.06 | COc1ccc(C(=O)N2CCC(c3ccc(NC(=O)C4CN(c5cccnn5)C4)cc3)CC2)cc1 [Example 347, N-{4-[1-(4-methoxybenzoyl)piperidin-4-yl]phenyl}-1-(pyridazin-3-yl)azetidine-3-carboxamide]
2 | O=C(Nc1ccc(C2CCN(C(=O)c3cccc(F)c3)CC2)cc1)C1CN(c2cccnn2)C1 [Example 348, N-{4-[1-(3-fluorobenzoyl)piperidin-4-yl]phenyl}-1-(pyridazin-3-yl)azetidine-3-carboxamide]
7.28 | O=C(Nc1ccc(C2CCN(C(=O)c3ccc(F)cc3)CC2)cc1)C1CN(c2cccnn2)C1 [Example 349, N-{4-[1-(4-fluorobenzoyl)piperidin-4-yl]phenyl}-1-(pyridazin-3-yl)azetidine-3-carboxamide]
0.75 | O=C(Nc1ccc(C2CCN(C(=O)c3ccccc3Cl)CC2)cc1)C1CN(c2cccnn2)C1 [Example 350, N-{4-[1-(2-chlorobenzoyl)piperidin-4-yl]phenyl}-1-(pyridazin-3-yl)azetidine-3-carboxamide]
2.36 | O=C(Nc1ccc(C2CCN(C(=O)c3cccc(Cl)c3)CC2)cc1)C1CN(c2cccnn2)C1 [Example 351, N-{4-[1-(3-chlorobenzoyl)piperidin-4-yl]phenyl}-1-(pyridazin-3-yl)azetidine-3-carboxamide]
8.88 | N#Cc1cccc(C(=O)N2CCC(c3ccc(NC(=O)C4CN(c5cccnn5)C4)cc3)CC2)c1 [Example 352, N-{4-[1-(3-cyanobenzoyl)piperidin-4-yl]phenyl}-1-(pyridazin-3-yl)azetidine-3-carboxamide]
7.15 | N#Cc1ccc(C(=O)N2CCC(c3ccc(NC(=O)C4CN(c5cccnn5)C4)cc3)CC2)cc1 [Example 353, N-{4-[1-(4-cyanobenzoyl)piperidin-4-yl]phenyl}-1-(pyridazin-3-yl)azetidine-3-carboxamide]

IC50 [nM] | Compound
7.51 | O=C(Nc1ccc(C2CCN(C(=O)c3cccc(C(F)(F)F)c3)CC2)cc1)C1CN(c2cccnn2)C1 [Example 354, 1-(pyridazin-3-yl)-N-(4-{1-[3-(trifluoromethyl)benzoyl]piperidin-4-yl}phenyl)azetidine-3-carboxamide]
9.79 | O=C(Nc1ccc(C2CCN(C(=O)c3ccc(C(F)(F)F)cc3)CC2)cc1)C1CN(c2cccnn2)C1 [Example 355, 1-(pyridazin-3-yl)-N-(4-{1-[4-(trifluoromethyl)benzoyl]piperidin-4-yl}phenyl)azetidine-3-carboxamide]
9.09 | O=C(Nc1ccc(C2CCN(C(=O)c3cccc(OC(F)(F)F)c3)CC2)cc1)C1CN(c2cccnn2)C1 [Example 356, 1-(pyridazin-3-yl)-N-(4-{1-[3-(trifluoromethoxy)benzoyl]piperidin-4-yl}phenyl)azetidine-3-carboxamide]
1.47 | Cc1cccc(C(=O)N2CCC(c3ccc(NC(=O)C4CN(c5cccnn5)C4)cc3)CC2)c1C [Example 357, N-{4-[1-(2,3-dimethylbenzoyl)piperidin-4-yl]phenyl}-1-(pyridazin-3-yl)azetidine-3-carboxamide]
1.86 | Cc1ccc(C(=O)N2CCC(c3ccc(NC(=O)C4CN(c5cccnn5)C4)cc3)CC2)c(C)c1 [Example 358, N-{4-[1-(2,4-dimethylbenzoyl)piperidin-4-yl]phenyl}-1-(pyridazin-3-yl)azetidine-3-carboxamide]
1.77 | Cc1ccc(C)c(C(=O)N2CCC(c3ccc(NC(=O)C4CN(c5cccnn5)C4)cc3)CC2)c1 [Example 359, N-{4-[1-(2,5-dimethylbenzoyl)piperidin-4-yl]phenyl}-1-(pyridazin-3-yl)azetidine-3-carboxamide]
2.35 | Cc1ccc(C(=O)N2CCC(c3ccc(NC(=O)C4CN(c5cccnn5)C4)cc3)CC2)cc1C [Example 360, N-{4-[1-(3,4-dimethylbenzoyl)piperidin-4-yl]phenyl}-1-(pyridazin-3-yl)azetidine-3-carboxamide]
2.77 | Cc1cc(C)cc(C(=O)N2CCC(c3ccc(NC(=O)C4CN(c5cccnn5)C4)cc3)CC2)c1 [Example 361, N-{4-[1-(3,5-dimethylbenzoyl)piperidin-4-yl]phenyl}-1-(pyridazin-3-yl)azetidine-3-carboxamide]
2.61 | O=C(Nc1ccc(C2CCN(C(=O)c3ccc(Cl)cc3Cl)CC2)cc1)C1CN(c2cccnn2)C1 [Example 362, N-{4-[1-(2,4-dichlorobenzoyl)piperidin-4-yl]phenyl}-1-(pyridazin-3-yl)azetidine-3-carboxamide]
5.6 | O=C(Nc1ccc(C2CCN(C(=O)c3cc(Cl)ccc3Cl)CC2)cc1)C1CN(c2cccnn2)C1 [Example 363, N-{4-[1-(2,5-dichlorobenzoyl)piperidin-4-yl]phenyl}-1-(pyridazin-3-yl)azetidine-3-carboxamide]
8.63 | O=C(Nc1ccc(C2CCN(C(=O)c3ccc(Cl)c(Cl)c3)CC2)cc1)C1CN(c2cccnn2)C1 [Example 364, N-{4-[1-(3,4-dichlorobenzoyl)piperidin-4-yl]phenyl}-1-(pyridazin-3-yl)azetidine-3-carboxamide]
7.84 | O=C(Nc1ccc(C2CCN(C(=O)c3cc(Cl)cc(Cl)c3)CC2)cc1)C1CN(c2cccnn2)C1 [Example 365, N-{4-[1-(3,5-dichlorobenzoyl)piperidin-4-yl]phenyl}-1-(pyridazin-3-yl)azetidine-3-carboxamide]
6.57 | O=C(Nc1ccc(C2CCN(C(=O)Cc3ccccc3F)CC2)cc1)C1CN(c2cccnn2)C1 [Example 366, N-(4-{1-[(2-fluorophenyl)acetyl]piperidin-4-yl}phenyl)-1-(pyridazin-3-yl)azetidine-3-carboxamide]
6.38 | O=C(Nc1ccc(C2CCN(C(=O)Cc3cccc(F)c3)CC2)cc1)C1CN(c2cccnn2)C1 [Example 367, N-(4-{1-[(3-fluorophenyl)acetyl]piperidin-4-yl}phenyl)-1-(pyridazin-3-yl)azetidine-3-carboxamide]
7.7 | O=C(Nc1ccc(C2CCN(C(=O)Cc3ccc(F)cc3)CC2)cc1)C1CN(c2cccnn2)C1 [Example 368, N-(4-{1-[(4-fluorophenyl)acetyl]piperidin-4-yl}phenyl)-1-(pyridazin-3-yl)azetidine-3-carboxamide]
2.14 | O=C(Nc1ccc(C2CCN(C(=O)Cc3ccccc3Cl)CC2)cc1)C1CN(c2cccnn2)C1 [Example 369, N-(4-{1-[(2-chlorophenyl)acetyl]piperidin-4-yl}phenyl)-1-(pyridazin-3-yl)azetidine-3-carboxamide]
8.79 | O=C(Nc1ccc(C2CCN(C(=O)Cc3ccc(Cl)cc3)CC2)cc1)C1CN(c2cccnn2)C1 [Example 370, N-(4-{1-[(4-chlorophenyl)acetyl]piperidin-4-yl}phenyl)-1-(pyridazin-3-yl)azetidine-3-carboxamide]
8.94 | O=C(Nc1ccc(C2CCN(C(=O)Cc3ccc(C(F)(F)F)cc3)CC2)cc1)C1CN(c2cccnn2)C1 [Example 371, 1-(pyridazin-3-yl)-N-[4-(1-{[4-(trifluoromethyl)phenyl]acetyl}piperidin-4-yl)phenyl]azetidine-3-carboxamide]
